Reference: US6677324B1, “Combination preparation of estrogen and anti-estrogen” (Schering Aktiengesellschaft, priority 1998, dated 2004)

Legend:
uterus and bone = assay: Selective bone action test: uterus weight, uterine epithelium depth and trabecular bone density of proximal tibia in ovarectomized rats; assay type: in vivo, rat; conditions: combination with 17β-oestradiol, ovarectomized rats 3 months old, treated 28 days, FIGS. 1-3
Experimental: In the FIG. 1 means: control (only solvent), 2: 0.3 μg of oestradiol, 3: 75 μg of test substance, 4: 75 μg of test substance+0.03 μg of oestradiol, 5: 75 μg of test substance+0.1 μg of oestradiol, 6: 75 μg of test substance+0.3 μg of oestradiol, 7: 75 μg of test substance+1.0 μg of oestradiol, 8: 75 μg of test substance+3.0 μg of oestradiol.
In the FIG. 1 means: control (only solvent), 2: 0.3 μg of oestradibl, 3: 75 μg of test substance, 4: 75 μg of test substance+0.03 μg of oestradiol, 5: 75 μg of test substance+0.1 μg of oestradiol, 6: 75 μg of test substance+0.3 μg of oestradiol, 7: 75 μg of test substance+1.0 μg of oestradiol, 8: 75 μg of test substance+3.0 μg of oestradiol.
The doses of the oestrogen and antioestrogen to be used for the selective bone action test must be established to begin with in preliminary investigations.
The dose of the antioestrogen to be used is determined by an antiuterus growth test in the oestradiol-substituted, ovarectomized rat. […]
After 28 days, the animals are killed and the uterus weight, as well as the trabecular bone density in the proximal tibia, is measured. The uterus weight is determined by weighing the uterus moist weight immediately after organ removal. The trabecular bone density is determined ex vivo by bone density measurements in the secondary spongiosa of the proximal tibia using a QCT (Stratec XCT 960A).

central nervous system = conditions: Biegon et al. 1996; cited from earlier work

Row | Structure (SMILES) | selective action of the combination on bone versus uterus (uterus and bone) | action in the central nervous system (central nervous system)
1 | CN(CCCCC[C@@H]1Cc2cc(O)ccc2[C@@H]2[C@@H]1[C@@H]1CC[C@H](O)[C@@]1(C)C[C@@H]2F)CCCSCCCC(F)(F)C(F)(F)F [Example 1, 11β-fluoro-7α-{5-[N-methyl-N-3-(4,4,5,5,5-pentafluoropentylthio)propylamino]pentyl}-oestra-1,3,5(10)-triene-3,17β-diol] | selectively active | –
2 | CC/C(=C(\c1ccccc1)c1ccc(OCCN(C)C)cc1)c1ccccc1 [tamoxifen] | – | acts there as an oestroaenic antagonist
